These are literature values, as cited in patent US11878071B2, “Product for dyeing keratinous material, containing aminosilicone, a chromophoric compound, preservative and a fatty constituent” (Henkel AG & Co. KGaA, priority 2019, dated 2024).

The conditions of the series: 25° C.

Structures are written as SMILES.

As to `CCN(Cc1cccc(S(=O)(=O)[O-])c1)c1ccc(C(=C2C=CC(=[N+](CC)Cc3cccc(S(=O)(=O)[O-])c3)C=C2)c2ccccc2S(=O)(=O)[O-])cc1.[Na+].[Na+]` [Acid Blue 9], the solubility in water result is recorded as “more than 20 % by weight”.

As to `O=S(=O)([O-])c1ccc(N=Nc2c(O)ccc3ccccc23)cc1.[Na+]` [Acid Orange 7, sodium salt of 4-[(2-hydroxy-1-naphthyl)azo]benzene sulphonate], the solubility in water result is “more than 7 g/L”.

Take `O=C([O-])C1=NN(c2ccc(S(=O)(=O)[O-])cc2)C(=O)C1N=Nc1ccc(S(=O)(=O)[O-])cc1.[Na+].[Na+].[Na+]` (centres unmarked) [Acid Yellow 23, trisodium salt of 4,5-dihydro-5-oxo-1-(4-sulfophenyl)-4-((4-sulfophenyl)azo)-1H-pyrazole-3-carboxylic acid]: the “solubility in water” value was “highly soluble in water”.

Consider `O=C([O-])c1c(Cl)c(Cl)c(Cl)c(Cl)c1-c1c2c(Br)cc(=O)c(Br)c-2oc2c(Br)c(O)cc(Br)c12.O=C([O-])c1c(Cl)c(Cl)c(Cl)c(Cl)c1-c1c2c(Br)cc(=O)c(Br)c-2oc2c(Br)c(O)cc(Br)c12.[Na+].[Na+]` [Acid Red 92, disodium salt of 3,4,5,6-tetrachloro-2-(1,4,5,8-tetrabromo-6-hydroxy-3-oxoxanthen-9-yl)benzoic acid], for which the solubility in water entry is reported as “greater than 10 g/L”.

With `Nc1cc(S(=O)(=O)[O-])cc2cc(S(=O)(=O)[O-])c(N=Nc3ccccc3)c(O)c12.[Na+].[Na+]` [Acid Red 33, diantrium salt of 5-amino-4-hydroxy-3-(phenylazo)-naphthalene-2,7-disulphonate], the solubility in water is 2500 µg/mL.
